Source: PMC6337261, “Short Peptides with Uncleavable Peptide Bond Mimetics as Photoactivatable Caspase-3 Inhibitors” (Molecules, 2019)

Assays:
caspase-3 [1] = test: Competitive ABPP with bisulfite aldehyde quenching; assay type: biochemical
From the text: (§1) The presence of a ψ(CH2NH) peptide with benzophenone or UV irradiation alone was not sufficient for inhibition, but all needed to be present to block the caspase-3 active site (Figure 3G,H). We hypothesized that the active species is a peptide aldehyde, formed by oxidation of the ψ(CH2NH) moiety (see also discussion in Section 3). To support this hypothesis, we performed an experiment in which this aldehyde was trapped by sodium bisulfite, forming a sodium bisulfite adduct.
Compounds were incubated with or without irradiation (10 min) in PBS with or without 10 mM NaHSO3 and incubated for another 20 min before addition to caspase-3. After 30 min, ABP 13 was added (final concentration 1 μM) to label residual caspase activity. The samples were incubated for 30 min at room temperature, after which 1/3rd volume of 4× Laemmli buffer was added. Samples were processed in the same way as under Section 4.4.1.
(§2) Figure 3 Non-covalent inhibition of caspase-3 by compounds 9 and 10. (A) Fluorescent labeling of caspase-3 by ψ(CH2NH) peptides 9–10 and triazolo peptides 11–12. […] (B) Deconvoluted ESI-MS of caspase-3. (C) Deconvoluted ESI-MS of caspase-3 after incubation with covalent activity-based probe (ABP) 13. Note that the active site, located on the large subunit, is modified. (D) Deconvoluted ESI-MS of caspase-3 after irradiation in the presence of benzophenone ψ(CH2NH) 10a, not resulting in covalent modification. […] (F) Structures of ψ(CH2NH) peptides 14 and 15 without photocrosslinker. (G) UV irradiation of ψ(CH2NH) peptides 14 and 15 in the presence of benzophenone leads to inhibition of caspase-3, as monitored by competitive ABPP. […] Ac-DEVD-aldehyde (100 nM) was used as a control compound, whereas 9a and 10a (10 μM) were irradiated for 10 min and reacted with sodium bisulfite for an additional 20 min before 30 min incubation with caspase-3 and read-out with a fluorescent caspase ABP.

caspase-3 [2] = test: Competitive ABPP with ψ(CH2NH) peptides irradiated in presence of spiked-in benzophenone; assay type: biochemical; details: for Inhibition of caspase-3 after irradiation with benzophenone: irradiated in presence of an equimolar amount (1 eq) of benzophenone
From the text: as §1
(§3) Although this points towards a cyclization rather than reaction with a water molecule, it is not clear whether it leads to a potent caspase inhibitor. […] Therefore, cyclization seemed improbable, as this would most likely lead to a shift in retention time. We hypothesized that irradiation could potentially lead to oxidation of a very small amount of the ψ(CH2NH) moiety with benzophenone as a photosensitizer, resulting in minute quantities of aldehydes that were not detected on LC-MS, but were sufficient for caspase-3 inhibition. Oxidation of secondary amines under influence of benzophenone has been reported before. […] Note that triazoles cannot undergo this transformation, further explaining their inactivity. The oxidation hypothesis was supported by an experiment in which ψ(CH2NH) peptides 14 and 15, not containing a benzophenone, were irradiated in the presence of 1 eq of spiked-in benzophenone (Figure 3G–I).
Caspase-3, produced in E. coli and purified as described before, was reacted in PBS with 1 mM DTT. Samples were combined with the indicated probe and irradiated with a handheld UV lamp at 365 nm for 30 min at room temperature. […]
Figure 3 Non-covalent inhibition of caspase-3 by compounds 9 and 10. […] (G) UV irradiation of ψ(CH2NH) peptides 14 and 15 in the presence of benzophenone leads to inhibition of caspase-3, as monitored by competitive ABPP. […] Ac-DEVD-aldehyde (100 nM) was used as a control compound, whereas 9a and 10a (10 μM) were irradiated for 10 min and reacted with sodium bisulfite for an additional 20 min before 30 min incubation with caspase-3 and read-out with a fluorescent caspase ABP.

caspase-3 [3] = test: Gel-based competitive ABPP on recombinant caspase-3; assay type: biochemical; details: for Inhibition of caspase-3 activity (caspase ABP labeling): PBS with 1 mM DTT, fluorescent ABP read-out on gel; for Inhibition of caspase-3 (competitive ABPP, Figure S1): triazolo peptides at 100 μM
Procedure: (§4) To check whether our probes function as inhibitors, competitive ABPP [28] was performed. Recombinant caspase-3 was incubated with probes 9a–10c, 11a and 12a with or without irradiation at 365 nm, followed by labeling of residually active caspase-3 with the fluorescent, caspase-directed activity-based probe (ABP) SV149, a tetramethylrhodamine derivative of KMB-01 [29]. Caspase activity itself was not affected by UV irradiation, as shown by bands of equal intensity with and without UV light (Figure 2A). […] To confirm inhibition, we also performed substrate cleavage assays using the fluorogenic aminomethyl coumarin substrate Ac-DEVD-AMC. […] Inhibition of active caspases could also be achieved in an apoptotic cell lysate (Figure 2D).
(§5) Caspase-3, produced in E. coli and purified as described before, was reacted in PBS with 1 mM DTT. Samples were combined with the indicated probe and irradiated with a handheld UV lamp at 365 nm for 30 min at room temperature. For competition experiments with ‘pre-activation,’ the indicated probes were irradiated for 30 min prior to addition to caspase-3, and incubated for an additional 30 min. Next, ABP 13 was added (final concentration 1 μM) to label residual caspase-3 activity. The samples were incubated for 30 min at room temperature, after which 1/3rd volume of 4× Laemmli buffer was added. Samples were heated at 95 °C for 2 min and resolved by 15% SDS-PAGE. Gels were scanned using a Typhoon Trio+ fluorescent scanner with excitation at 532 nm and an emission filter of 580 nm. Gel images were processed with ImageJ (background subtraction with rolling ball radius of 50 pixels and automated contrast adjustment).
(§6) Figure 2 Inhibition of caspase-3. (A) Competitive activity-based protein profiling (ABPP) experiments using ψ(CH2NH) or triazolo peptide derivatives 9–12 with or without irradiation. Compounds 9a–12a were used at 10 μM final concentration, 9b, 9c, 10b and 10c at 100 μM. Inh = caspase inhibitor biotin-DEVD-AOMK, used at 100 nM concentration. (B) Representative progress curves of fluorescence produced by Ac-DEVD-AMC (50 μM) cleavage by caspase-3, irradiated with or without 10 μM of the indicated compounds. (C) Bar graph of residual caspase-3 activity of replicate experiments (n = 2) of those in (B). (D) Inhibition of executioner’s caspase-3 and -7 in lysates of HEK293 cells, treated with cytochrome c/dATP to induce apoptosis.

caspase-3 [4] = test: Competitive ABPP with UV pre-activation of the probes; assay type: biochemical; details: compound irradiated at 365 nm for 30 min, light source removed, then added to caspase-3 for 30 min; fluorescent ABP read-out
Procedure: (§7) Compounds were irradiated with UV light of 365 nm for 30 min and after removal of the light source added to caspase-3. Residual caspase activity was measured by using a fluorescent caspase ABP as in our previous experiments above.
as §5, §2

[5] = LC-MS analysis of probes before and after UV irradiation; assay type: physicochemical; details: irradiation at 365 nm, gradient 10% to 95% acetonitrile with 0.1% formic acid
Procedure: as §7, §3
All materials were purchased from Sigma Aldrich GmbH (GmbH, Darmstadt, Germany), Carl Roth GmbH + Co. KG (Karlsruhe, Germany), Thermo Fischer Scientific Inc. (Dreieich, Germany), Rapp Polymere GmbH (Tübingen, Germany), Applichem GmbH (Darmstadt, Germany), VWR International GmbH (Darmstadt, Germany), Merck KGaA (Darmstadt, Germany), CreoSalus Inc. (Louisville, KY, USA), and Iris Biotech GmbH (Marktredwitz, Germany) and were used as received, unless otherwise noted. TLC was performed on pre-coated ALUGRAM SIL G plates with detection by a handheld UV lamp (254 nm) and subsequent staining with potassium permanganate, p-anisaldehyde, ninhydrin or cerium ammonium molybdate. LC-MS analysis was performed on a Thermo LCQ Fleet HPLC-MS/MS system using a gradient of 10% to 95% acetonitrile containing 0.1% formic acid. NMR spectra were recorded on a Bruker Avance DRX 400 spectrometer with tetramethylsilane as internal standard. High resolution ESI-FTMS was performed on a Thermo Scientific LTQ Orbitrap Velos Pro mass spectrometer.

caspase-3 [6] = test: Fluorogenic substrate (Ac-DEVD-AMC) cleavage assay; assay type: biochemical; details: 10 μM compound, 2 nM caspase-3, 50 μM Ac-DEVD-AMC, HEPES pH 7.4 with 10 mM DTT, n = 2
Procedure: as §4
Purified caspase-3 (2 nM) was pre-activated by incubating in caspase reaction buffer (20 mm HEPES pH 7.4, 100 mM NaCl, 1 mM EDTA, 10% sucrose (w/v), 0.1% CHAPS (w/v), 10 mM DTT) for 15 min at 37 °C. Inhibitors 9a, 10a, and DMSO (control) were incubated with the caspase-3 at 10 μM final concentration. One set was irradiated with a handheld UV lamp at 365 nm for 30 min at room temperature whereas the control set was not irradiated. After 30 min, 99 μL of the sample was added to 1 μL of Ac-DEVD-AMC fluorogenic substrate (5 mM in dmso; 50 μM final concentration) in a black 96 well plate. The fluorescence intensity was read using an iD3 SpectraMax platereader (Molecular Devices; excitation wavelength: 340 nm; emission wavelength: 475 nm). The experiment was performed in duplicate. Activity was determined as the slope from the linear part of the progress curve by using GraphPad Prism.
as §6

[7] = 100 μM compound, irradiated at 365 nm for 30 min at room temperature
[8] = 100 μM compound, non-irradiated
[9] = 10 μM compound, irradiated at 365 nm for 30 min at room temperature

Substance | Inhibition of caspase-3 activity (caspase ABP labeling) (caspase-3 [3]; [7]) | Inhibition of caspase-3 after UV pre-activation of compound (caspase-3 [4]) | Change of probe upon UV irradiation (LC-MS before and after) [5] | Inhibition of caspase-3 activity (caspase ABP labeling) (caspase-3 [3]; [9]) | further results
Ac-DEVD-aldehyde [Ac-DEVD peptide aldehyde, reference compound] |  |  |  |  | Inhibition of caspase-3 (caspase-3 [1]; 100 nM, without bisulfite, 30 min incubation with caspase-3, fluorescent ABP read-out): efficiently inhibits caspase-3
Acetyl-Asp-Glu-Val-Aspψ(CH2NH)-Ala-NH2 [compound 14] |  |  |  |  | Inhibition of caspase-3 after irradiation with benzophenone (caspase-3 [2]): still led to inhibition; Requirement for inhibition of caspase-3 (caspase-3 [2]; with or without benzophenone (BP) and UV irradiation): needs both BP and UV irradiation
Hexynoyl-Asp-Glu-Val-Aspψ(CH2NH)-Ala-photoLeu-NH2 [10b] | complete inhibition | still inhibited | loss of nitrogen |  | Inhibition of caspase-3 activity (caspase ABP labeling) (caspase-3 [3]; [8]): no decrease in caspase ABP labeling
Hexynoyl-Asp-Glu-Val-Aspψ(CH2NH)-Ala-p-azido-Phe-NH2 [10c] | did not show any inhibition |  |  |  | 
Hexynoyl-Bpa-Asp-Glu-Val-Asp(triazolo)-Ala-NH2 [11a] |  |  |  | did not | Inhibition of caspase-3 (competitive ABPP, Figure S1) (caspase-3 [3]): not show efficient inhibition
Hexynoyl-p-azido-Phe-Asp-Glu-Val-Aspψ(CH2NH)-Ala-NH2 [9c] | did not show any inhibition |  |  |  | 
Hexynoyl-Asp-Glu-Val-Asp(triazolo)-Ala-Bpa-Gly-NH2 [12a] |  |  |  | some inhibition | Inhibition of caspase-3 (competitive ABPP, Figure S1) (caspase-3 [3]): inhibition that is nearly quantitative
Hexynoyl-Asp-Glu-Val-Aspψ(CH2NH)-Ala-NH2 [compound 15] |  |  |  |  | Inhibition of caspase-3 after irradiation with benzophenone (caspase-3 [2]): still led to inhibition
Hexynoyl-Bpa-Asp-Glu-Val-Aspψ(CH2NH)-Ala-NH2 [9a] |  | still inhibited | did not show obvious changes | complete inhibition | Inhibition of caspase-3 activity (caspase ABP labeling) (caspase-3 [3]; 10 μM compound, non-irradiated): no decrease in caspase ABP labeling; Inhibition of Ac-DEVD-AMC cleavage by caspase-3 (caspase-3 [6]; irradiated at 365 nm for 30 min at room temperature): complete blockage of substrate processing; Inhibition of Ac-DEVD-AMC cleavage by caspase-3 (caspase-3 [6]; not irradiated): little to no inhibition; Inhibition of caspase-3 by irradiated sample exposed to sodium bisulfite (caspase-3 [1]; 10 μM, irradiated 10 min, reacted with 10 mM NaHSO3 for 20 min, then 30 min with caspase-3, fluorescent ABP read-out): lose their inhibitory capacity
Hexynoyl-photoLeu-Asp-Glu-Val-Aspψ(CH2NH)-Ala-NH2 [9b] | complete inhibition | still inhibited | loss of nitrogen |  | Inhibition of caspase-3 activity (caspase ABP labeling) (caspase-3 [3]; [8]): no decrease in caspase ABP labeling
